Source: patent publication US6355799B1, “Substituted benzene compounds, process for their preparation, and herbicidal and defoliant compositions containing them” (ISK Americas Incorporated, priority 1997, dated 2002)

Assays:
Type in all cases: in vivo
[1] = tested on: field corn (Zea mays L., var. Dekalb 535, CORN); test: Pre-emerge test, crop safety; details: rating scale 0-100, 14 days after application
Summary of the method: (§1)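 Plants grown in 10 cm pots of sandy loam mix received acetone-dissolved compounds through a moving flat-fan nozzle. Doses ranged from 15 to 1000 g ai/ha. Pre-emerge pots were seeded one day earlier, post-emerge pots 8–21 days earlier. Fourteen days on, each pot was graded 0–100 for damage.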

[2] = tested on: upland rice (Oryza sp., var. Tebonnet, RICE); test: Pre-emerge test, crop safety; details: rating scale 0-100, 14 days after application
Summary of the method: as §1

[3] = tested on: sicklepod (Cassia obtusifolia, CASOB); test: Post-emerge test, greenhouse herbicide activity screening; details: rating scale 0-100 (0 no damage, 100 complete death), 14 days after application
Summary of the method: (§2)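 Each test used a mechanized track sprayer delivering 187 l/ha of acetone solution at 15–1000 g ai/ha. Post-emerge foliage at 2–3 leaves was treated with added 0.25% v/v non-ionic surfactant and bottom-watered only. Injury was assessed on day 14, where 100 means total kill.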

[4] = tested on: johnsongrass (Sorghum halepense, SORHA); test: as above; details: rating scale 0-100 (0 no damage, 100 complete death), 14 days after application
Summary of the method: as §2

[5] = tested on: lambsquarters (Chenopodium album, CHEAL); test: as above; details: rating scale 0-100 (0 no damage, 100 complete death), 14 days after application
Summary of the method: as §2

[6] = tested on: barnyardgrass (Echinochloa crus-galli, ECHCG); test: as above; details: rating scale 0-100 (0 no damage, 100 complete death), 14 days after application
Summary of the method: as §2

[7] = tested on: green foxtail (Setaria viridis, SETVI); test: as above; details: rating scale 0-100 (0 no damage, 100 complete death), 14 days after application
Summary of the method: as §2

[8] = tested on: common ragweed (Ambrosia artemisizfolia L., AMBEL); test: as above; details: rating scale 0-100 (0 no damage, 100 complete death), 14 days after application
Summary of the method: as §2

[9] = tested on: redroot pigweed (Amaranthus retroflexus, AMARE); test: as above; details: rating scale 0-100 (0 no damage, 100 complete death), 14 days after application
Summary of the method: as §2

[10] = tested on: ivyleaf morningglory (Ipomoea hederacea, IPOHE); test: as above; details: rating scale 0-100 (0 no damage, 100 complete death), 14 days after application
Summary of the method: as §2

[11] = tested on: large crabgrass (Digitaria sanguinalis, DIGSA); test: as above; details: rating scale 0-100 (0 no damage, 100 complete death), 14 days after application
Summary of the method: as §2

[12] = tested on: velvetleaf (Abutilon theophrasti, ABUTH); test: as above; details: rating scale 0-100 (0 no damage, 100 complete death), 14 days after application
Summary of the method: as §2

[13] = tested on: field corn (Zea mays L., var. Dekalb 535, CORN); test: Post-emerge test, crop safety; details: rating scale 0-100 (0 no damage, 100 complete death), 14 days after application
Summary of the method: (§3)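 Fourteen days after spraying, crop and weed injury was graded visually from 0, no effect, to 100, every plant dead. Test substances were dissolved in acetone and applied at 15–1000 g ai/ha with a flat-fan nozzle. Application was either pre-emergence, one day after sowing, or post-emergence at the 2–3 leaf stage.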

[14] = tested on: upland rice (Oryza sp., var. Tebonnet, RICE); test: Post-emerge test, crop safety; details: rating scale 0-100 (0 no damage, 100 complete death), 14 days after application
Summary of the method: as §3

[15] = tested on: redroot pigweed (Amaranthus retroflexus, AMARE); test: Pre-emerge test, greenhouse herbicide activity screening; details: rating scale 0-100, 14 days after application
Summary of the method: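 Visual ratings on a 0-100 scale (0 no damage, 100 all plants dead) were taken at 14 days after treatment. Rates of 15-1000 g ai/ha in acetone, 187 l/ha, were sprayed onto soil one day after planting (pre-emerge) or onto 2-3 leaf plants with 0.25% v/v surfactant (post-emerge).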

[16] = tested on: sicklepod (Cassia obtusifolia, CASOB); test: as above; details: rating scale 0-100, 14 days after application
Summary of the method: as §3

[17] = tested on: johnsongrass (Sorghum halepense, SORHA); test: as above; details: rating scale 0-100, 14 days after application
Summary of the method: as §3

[18] = tested on: lambsquarters (Chenopodium album, CHEAL); test: as above; details: rating scale 0-100, 14 days after application
Summary of the method: as §3

[19] = tested on: barnyardgrass (Echinochloa crus-galli, ECHCG); test: as above; details: rating scale 0-100, 14 days after application
Summary of the method: as §3

[20] = tested on: green foxtail (Setaria viridis, SETVI); test: as above; details: rating scale 0-100, 14 days after application
Summary of the method: as §3

[21] = tested on: common ragweed (Ambrosia artemisizfolia L., AMBEL); test: as above; details: rating scale 0-100, 14 days after application
Summary of the method: as §3

[22] = tested on: ivyleaf morningglory (Ipomoea hederacea, IPOHE); test: as above; details: rating scale 0-100, 14 days after application
Summary of the method: as §3

[23] = tested on: large crabgrass (Digitaria sanguinalis, DIGSA); test: as above; details: rating scale 0-100, 14 days after application
Summary of the method: as §3

[24] = tested on: velvetleaf (Abutilon theophrasti, ABUTH); test: as above; details: rating scale 0-100, 14 days after application
Summary of the method: as §3

CCCCOC(=O)C(C)(Cl)Cc1c(OC)c(Cl)cc(F)c1-n1c(=O)cc(C(F)(F)F)n(C)c1=O (stereo not drawn) [14-36]
35: Post-emerge phytotoxicity rating RICE (crop damage) ([14]; Rate 63 g ai/ha)
65: Post-emerge Herbicidal Activity, phytotoxicity rating DIGSA ([11]; Rate 250 g ai/ha)
75: Pre-emerge herbicidal activity, phytotoxicity rating AMARE ([15]; 63 g ai/ha) | Pre-emerge herbicidal activity, phytotoxicity rating CHEAL ([18]; 63 g ai/ha)
90: Pre-emerge herbicidal activity, phytotoxicity rating ECHCG ([19]; 250 g ai/ha)
80: Pre-emerge herbicidal activity, phytotoxicity rating AMBEL ([21]; 250 g ai/ha)
95: Post-emerge Herbicidal Activity, phytotoxicity rating AMBEL ([8]; Rate 250 g ai/ha) | Post-emerge Herbicidal Activity, phytotoxicity rating ABUTH ([12]; Rate 63 g ai/ha) | Post-emerge phytotoxicity rating CORN (crop damage) ([13]; Rate 63 g ai/ha) | Post-emerge phytotoxicity rating CORN (crop damage) ([13]; Rate 250 g ai/ha) | Pre-emerge herbicidal activity, phytotoxicity rating SETVI ([20]; 250 g ai/ha) | Pre-emerge herbicidal activity, phytotoxicity rating DIGSA ([23]; 250 g ai/ha)
70: Pre-emerge phytotoxicity rating, crop damage RICE ([2]; 250 g ai/ha) | Post-emerge Herbicidal Activity, phytotoxicity rating IPOHE ([10]; Rate 250 g ai/ha)
40: Post-emerge Herbicidal Activity, phytotoxicity rating CASOB ([3]; Rate 250 g ai/ha) | Post-emerge Herbicidal Activity, phytotoxicity rating SORHA ([4]; Rate 250 g ai/ha) | Post-emerge Herbicidal Activity, phytotoxicity rating DIGSA ([11]; Rate 63 g ai/ha)
30: Post-emerge Herbicidal Activity, phytotoxicity rating IPOHE ([10]; Rate 63 g ai/ha) | Pre-emerge herbicidal activity, phytotoxicity rating SORHA ([17]; 250 g ai/ha) | Pre-emerge herbicidal activity, phytotoxicity rating DIGSA ([23]; 63 g ai/ha)
100: Post-emerge Herbicidal Activity, phytotoxicity rating CHEAL ([5]; Rate 250 g ai/ha) | Post-emerge Herbicidal Activity, phytotoxicity rating ECHCG ([6]; Rate 250 g ai/ha) | Post-emerge Herbicidal Activity, phytotoxicity rating AMBEL ([8]; Rate 63 g ai/ha) | Post-emerge Herbicidal Activity, phytotoxicity rating AMARE ([9]; Rate 63 g ai/ha) | Post-emerge Herbicidal Activity, phytotoxicity rating AMARE ([9]; Rate 250 g ai/ha) | Post-emerge Herbicidal Activity, phytotoxicity rating ABUTH ([12]; Rate 250 g ai/ha) | Pre-emerge herbicidal activity, phytotoxicity rating AMARE ([15]; 250 g ai/ha) | Pre-emerge herbicidal activity, phytotoxicity rating CHEAL ([18]; 250 g ai/ha) | Pre-emerge herbicidal activity, phytotoxicity rating ABUTH ([24]; 63 g ai/ha) | Pre-emerge herbicidal activity, phytotoxicity rating ABUTH ([24]; 250 g ai/ha)
85: Post-emerge Herbicidal Activity, phytotoxicity rating SETVI ([7]; Rate 63 g ai/ha)
99: Post-emerge Herbicidal Activity, phytotoxicity rating CHEAL ([5]; Rate 63 g ai/ha) | Post-emerge Herbicidal Activity, phytotoxicity rating ECHCG ([6]; Rate 63 g ai/ha) | Post-emerge Herbicidal Activity, phytotoxicity rating SETVI ([7]; Rate 250 g ai/ha)
0: Pre-emerge phytotoxicity rating, crop damage CORN ([1]; 63 g ai/ha) | Pre-emerge herbicidal activity, phytotoxicity rating CASOB ([16]; 63 g ai/ha) | Pre-emerge herbicidal activity, phytotoxicity rating CASOB ([16]; 250 g ai/ha) | Pre-emerge herbicidal activity, phytotoxicity rating SORHA ([17]; 63 g ai/ha) | Pre-emerge herbicidal activity, phytotoxicity rating ECHCG ([19]; 63 g ai/ha) | Pre-emerge herbicidal activity, phytotoxicity rating IPOHE ([22]; 63 g ai/ha) | Pre-emerge herbicidal activity, phytotoxicity rating IPOHE ([22]; 250 g ai/ha)
60: Post-emerge phytotoxicity rating RICE (crop damage) ([14]; Rate 250 g ai/ha)
10: Pre-emerge phytotoxicity rating, crop damage CORN ([1]; 250 g ai/ha) | Pre-emerge phytotoxicity rating, crop damage RICE ([2]; 63 g ai/ha) | Pre-emerge herbicidal activity, phytotoxicity rating SETVI ([20]; 63 g ai/ha) | Pre-emerge herbicidal activity, phytotoxicity rating AMBEL ([21]; 63 g ai/ha)
20: Post-emerge Herbicidal Activity, phytotoxicity rating CASOB ([3]; Rate 63 g ai/ha) | Post-emerge Herbicidal Activity, phytotoxicity rating SORHA ([4]; Rate 63 g ai/ha)
